Measured values taken from article PMC6540241, “Targeting Tumor Markers with Antisense Peptides: An Example of Human Prostate Specific Antigen” (International Journal of Molecular Sciences, 2019).
Where a SMILES comes first, the peptide text is derived from it. The star is where a group is joined. Biotin = O=C1N[C@H]2[C@H](CS[C@H]2CCCCC(=O)*)N1

Key:
[1] = molecular target: T1, hPSA peptide RHSLFHP (residues 53–59) (Homo sapiens, UniProt P07288); experiment: Microscale thermophoresis (MST); assay type: binding
T1 construct: Human prostate specific antigen (hPSA) peptide 53–59: RHSLFHP; purchased GenScript; host or cells: synthetic peptide
Procedure: The binding between the biotinylated antisense peptide AVRDKVG and a titrant, i.e., hPSA peptide RHSLFHP (Figure 3b), was observed by the method of microscale thermophoresis (MST). MST-analysis was performed using the Monolith.NT.115 instrument (NanoTemper Technologies GmbH, Munich, Germany). Biotin-AVRDKVG antisense directed to the hPSA region 53–59 was labeled with DY-495 (Red). The labeling procedure and the subsequent removal of unattached dye were performed within 45 min. A serial dilution of the non-labeled hPSA titrant was prepared in a 10 mM phosphate buffer. The concentration of biotin-hPSA antisense labelled with DY-495 was kept constant, while the concentration of the non-fluorescent binding partner (hPSA peptide RHSLFHP53–59) was varied between 0.0854 µM and 2.8 mM. After a short incubation, the samples were loaded into MST NT.115 standard glass capillaries and the MST-analysis was performed. The data were analyzed using GraphPad Prism software version 5.

[2] = test system: human prostate specific antigen (hPSA) in prostate cancer tissue; experiment: Immunohistochemical staining of hPSA, protocol 2 (biotinylated peptide instead of primary antibody); parameters: key to overall quality of scoring (NordiQC) / hPSA staining quality score (NordiQC): 3: Staining reaction considered perfect or close to perfect.; 2: Staining reaction considered fully acceptable. The protocol may be optimized to ensure the best staining intensity and signal-to-noise ratio.; 1: Staining considered insufficient.; 0: Staining considered very insufficient
Procedure: (§1) Immunohistochemistry was performed on deparafinized slides (xylen and a series of ethanol solutions) at room temperature (20–25 °C). The phosphate-buffered saline (PBS) was used, with a pH of 7.2 and containing disodium hydrogen phosphate, sodium chloride, potassium chloride and potassium dihydrogen phosphate was used. PBS stock solution: 4 g KH2PO4, 23 g Na2HPO4, 4 g KCl, 160 g NaCl and 810 mL distilled water. Before staining, 100 mL of stock solution was diluted with 1900 mL of distilled water.
All slides (from seven patients) were selected from the repository of prostate cancer tissue, with diagnosis confirmed by consensus of two independent pathologists. The two pathologists who examined the slides stained with antisense peptides were unconnected with the pathologists who established the initial diagnosis.
Each of the two immunohistochemistry protocols for PSA staining consisted of six steps. Steps 1, 4, 5 and 6 of protocol 1 and protocol 2 were identical, while steps 2 and 3 differed (Figure 5 and Figure 6). For this study, the slides were kept in the dark at room temperature (20–25 °C), to prevent fading as a result of exposure to strong light. They were analyzed using an Olympus BX41 microscope, with an Olympus DP71 camera set to three levels of magnification: less than 40×, 100×, and 500×.
The staining protocol 2 was a modified IHC protocol 1, as follows: In step 2 we used antisense peptide Biotin-AVRDKVG, instead of the primary monoclonal mouse anti-human PSA antibody, in step 3 we used rabbit polyclonal antibody to biotin conjugated to HRP, instead of HRP labeled polymer conjugated to goat anti-mouse immunoglobulins (Figure 5), with peptide Biotin-EHFRW as a negative control (Figure 7). Otherwise, the procedures and chemicals were identical. Quality control for the PSA staining was investigated using NordiQC scoring criteria: 0—Poor; 1—Borderline; 2—Good; 3—Optimal. The scale is presented in Table A2, and the final results given in Table 4 are expressed as a sum of scores.
IHC staining―protocol 2: • The specimen was covered with peroxidase block, i.e., 100 μL of 0.03% hydrogen peroxide containing sodium azide (Dako, Glostrup, Denmark), and incubated for four minutes. Following this, the specimen was gently rinsed with phosphate buffered saline (PBS), and placed in a fresh buffer bath. • Biotinylated antisense peptide AVRDKVG (GenScript, Piscataway, NJ, USA) directed to PSA epitope 53–59 (RHSLFHP) was used to cover the specimen. Five milligrams of Biotin-AVRDKVG antisense was diluted in 2.5 mL PBS. Dilutions 1:10, 1:50, 1:100, 1:200 and 1:500 were applied to cover the specimen. A 100 μL volume was used per section. After 30 min of incubation, each specimen was gently rinsed with PBS and placed in a fresh buffer bath. • Anti-biotin antibody conjugated to HRP (ab34645, Abcam, Cambridge, UK) was applied to cover the specimen. Of the antibody 10 mg/2 mL was diluted 1:100. One hundred microliters of the diluted antibody was applied to cover each specimen, followed by a 30 min incubation. After the incubation, the specimen was gently rinsed with PBS and placed in a fresh buffer bath. • The specimen was covered with 100 μL of AEC + substrate-chromogen solution for 10 min, i.e., 3-amino-9-ethylcarbazole containing hydrogen peroxide, stabilizers, enhancers and an anti-microbial agent (Dako, Glostrup, Denmark). After that period the specimen was again rinsed with PBS. • The slides were immersed in a bath of aqueous hematoxylin (Mayerr’s hematoxylin), and rinsed gently in a distilled water bath. The slides were dipped 10 times into a bath of ammonia (0.037 mol/L), and then rinsed in a bath of distilled water for four minutes. • The specimens were mounted and coverslipped with non-aqueous permanent mounting medium Ultramount.

liver tissue = experiment: Immunohistochemical staining of negative control tissue (protocol 2); parameters: species or system human
Procedure: as §1
Each of the two immunohistochemistry protocols for PSA staining consisted of six steps. Steps 1, 4, 5 and 6 of protocol 1 and protocol 2 were identical, while steps 2 and 3 differed (Figure 5 and Figure 6). […] They were analyzed using an Olympus BX41 microscope, with an Olympus DP71 camera set to three levels of magnification: less than 40×, 100×, and 500×.
The staining protocol 2 was a modified IHC protocol 1, as follows: In step 2 we used antisense peptide Biotin-AVRDKVG, instead of the primary monoclonal mouse anti-human PSA antibody, in step 3 we used rabbit polyclonal antibody to biotin conjugated to HRP, instead of HRP labeled polymer conjugated to goat anti-mouse immunoglobulins (Figure 5), with peptide Biotin-EHFRW as a negative control (Figure 7). […] The scale is presented in Table A2, and the final results given in Table 4 are expressed as a sum of scores. […]

CC(C)[C@H](NC(=O)[C@H](C)NC(=O)CCCC[C@@H]1SC[C@@H]2NC(=O)N[C@@H]21)C(=O)N[C@@H](CCCNC(=N)N)C(=O)N[C@@H](CC(=O)O)C(=O)N[C@@H](CCCCN)C(=O)N[C@H](C(=O)NCC(=O)O)C(C)C [Biotin-AVRDKVG] (Biotin-AVRDKVG-OH)
Kd ([1]; Biotin-AVRDKVG labelled with DY-495, constant, RHSLFHP 0.0854 µM–2.8 mM, 10 mM phosphate buffer, r^2 = 0.989, mean ± SEM, read-out: dissociation constant (Kd)): 24.3 ± 0.74 µM | effect of N-terminal biotinylation on binding ([1]; versus Kd of the non-biotinylated peptide by tryptophan fluorescence): does not significantly alter the binding to hPSA region 53–59 (RHSLFHP) | signal to noise ratio versus standard monoclonal antibody ([2]; compared with primary monoclonal mouse anti-human PSA antibody): comparable to the standard primary monoclonal mouse anti-human PSA antibody | hPSA staining quality score (NordiQC) ([2]; dilution 1:10 (of 5 mg in 2.5 mL PBS), patient 1): 0 | hPSA staining quality score (NordiQC) ([2]; dilution 1:10, patient 2): 0 | hPSA staining quality score (NordiQC) ([2]; dilution 1:10, patient 3): 0 | hPSA staining quality score (NordiQC) ([2]; dilution 1:10, patient 4): 0 | hPSA staining quality score (NordiQC) ([2]; dilution 1:10, patient 5): 0 | hPSA staining quality score (NordiQC) ([2]; dilution 1:10, patient 6): 0 | hPSA staining quality score (NordiQC) ([2]; dilution 1:10, patient 7): 0 | Sum of scores (NordiQC) ([2]; dilution 1:10, seven patients): 0 | hPSA staining quality score (NordiQC) ([2]; dilution 1:50, patient 1): 1 | hPSA staining quality score (NordiQC) ([2]; dilution 1:50, patient 2): 1 | hPSA staining quality score (NordiQC) ([2]; dilution 1:50, patient 3): 2 | hPSA staining quality score (NordiQC) ([2]; dilution 1:50, patient 4): 1 | hPSA staining quality score (NordiQC) ([2]; dilution 1:50, patient 5): 1 | hPSA staining quality score (NordiQC) ([2]; dilution 1:50, patient 6): 1 | hPSA staining quality score (NordiQC) ([2]; dilution 1:50, patient 7): 1 | Sum of scores (NordiQC) ([2]; dilution 1:50, seven patients): 8 | staining of prostate cancer tissue ([2]; dilution 1:100): solid staining signal with minimal or absent background noise | hPSA staining quality score (NordiQC) ([2]; dilution 1:100, patient 1): 2 | hPSA staining quality score (NordiQC) ([2]; dilution 1:100, patient 2): 2 | hPSA staining quality score (NordiQC) ([2]; dilution 1:100, patient 3): 3 | hPSA staining quality score (NordiQC) ([2]; dilution 1:100, patient 4): 2 | hPSA staining quality score (NordiQC) ([2]; dilution 1:100, patient 5): 3 | hPSA staining quality score (NordiQC) ([2]; dilution 1:100, patient 6): 2 | hPSA staining quality score (NordiQC) ([2]; dilution 1:100, patient 7): 2 | Sum of scores (NordiQC) ([2]; dilution 1:100, seven patients): 16 | hPSA staining quality score (NordiQC) ([2]; dilution 1:200, patient 1): 0 | hPSA staining quality score (NordiQC) ([2]; dilution 1:200, patient 2): 1 | hPSA staining quality score (NordiQC) ([2]; dilution 1:200, patient 3): 1 | hPSA staining quality score (NordiQC) ([2]; dilution 1:200, patient 4): 1 | hPSA staining quality score (NordiQC) ([2]; dilution 1:200, patient 5): 1 | hPSA staining quality score (NordiQC) ([2]; dilution 1:200, patient 6): 1 | hPSA staining quality score (NordiQC) ([2]; dilution 1:200, patient 7): 1 | Sum of scores (NordiQC) ([2]; dilution 1:200, seven patients): 6 | hPSA staining quality score (NordiQC) ([2]; dilution 1:500, patient 1): 0 | hPSA staining quality score (NordiQC) ([2]; dilution 1:500, patient 2): 0 | hPSA staining quality score (NordiQC) ([2]; dilution 1:500, patient 3): 0 | hPSA staining quality score (NordiQC) ([2]; dilution 1:500, patient 4): 0 | hPSA staining quality score (NordiQC) ([2]; dilution 1:500, patient 5): 0 | hPSA staining quality score (NordiQC) ([2]; dilution 1:500, patient 6): 0 | hPSA staining quality score (NordiQC) ([2]; dilution 1:500, patient 7): 0 | Sum of scores (NordiQC) ([2]; dilution 1:500, seven patients): 0 | staining of prostate cancer tissue ([2]; dilutions 1:10 and 1:50): increase in background noise | staining of prostate cancer tissue ([2]; dilutions 1:200 and 1:500): loss of staining signal | non-specific staining of prostate tissue ([2]; high concentration (1:10)): increase in background | overall quality of scoring (NordiQC) ([2]; overall): 2 | staining of negative control tissue (liver tissue): did not stain
